The values that follow come from patent US11046991B2, “Rapid preconcentration of viable bacteria using magnetic ionic liquid for PCR amplification and culture-based diagnostics” (priority 2017, dated 2021).

Read-outs that look alike come from different tables or passages of the source.

A short description of data set [1]: Magnetic susceptibility, SQUID magnetometer. To be noted: for μeff, effective magnetic moment: from magnetic susceptibility data, SQUID. In kind it is physicochemical. On the procedure:
The μeff values for each exemplary MIL were determined using a Quantum Design MPMS SQUID magnetometer following procedures similar to those previously reported. (Y. Mudryk, P. Manfrinetti, V. Smetana, J. Liu, M. L. Fornasini, A. Provino, V. K. Pecharsky, G. J. Miller and K. A. Gschneidner, J. Alloys Compd, 2013, 557, 252-260).

Data set [2] in a line: Hydrophobicity comparison: 50 μL MIL in 12 mL water, vortexed and heated to 85° C. The data set is classed as physicochemical. To be noted: 50 μL MIL in 12 mL deionized water, 85° C. for 10 minutes. On the procedure: […] […] Vortexing the MIL droplet caused dispersion of the MIL into fine microdroplets that were suspended within the aqueous solution, ultimately settling at the bottom of the vessel. […] Each MIL was vortexed and heated to 85° C. for 10 minutes.

The nature of data set [3]: Thermal stability, MIL film in GC capillary with flame ionization detection. The data set is classed as physicochemical. To be noted: for onset of decomposition (thermal stability): 40° C. to 350° C. at 1° C./min. The procedure:
The thermal stability of all exemplary MILs was tested by monitoring the thermal volatilization/decomposition of the MIL when the MIL was used as a stationary phase in gas chromatography. To achieve this, an approximate 0.25-0.28 μm film of IL/MIL was immobilized on the inner wall of a fused silica capillary. The IL/MIL coated capillary was then heated slowly in a GC oven and an ultra-sensitive flame ionization detector (FID) was used to detect any volatilization/decomposition of the IL/MIL. These tests were run using a temperature program starting at 40° C. and increased at 1° C./min to 350° C. on an Agilent 6850 gas chromatograph with a flame ionization detector (Santa Clara, Calif., USA). The [P66614^+] [Cl^−] IL was also coated under the same conditions and was used as a reference.

The test system of the next data set is E. coli K12 cells. The data set is classed as cell-based. On the procedure: Since culture-based methods are contingent upon the isolation of viable bacteria, the detection of E. coli following MIL-based cell extraction is influenced by the cytotoxicity of MILs. To study the effect of MILs on the growth of E. coli, a 1 mL aliquot of LB media was inoculated with 8.0×10^2±0.5×10^2 CFUs mL^−1 and spiked with approximately 10 μL of a MIL. The mixture was agitated by vortex to simulate the recovery procedure after which a 100 μL aliquot of the suspension was plated on selective agar.

The subject of data set [4] is E. coli. Kind of data set: PCR amplification of LB back-extraction solution after MIL-based extraction. To be noted: for E. coli concentration at which bacterial pDNA was detected by PCR: cell recovery in LB media prior to PCR, 2 mL sample; for amplicon after extraction of cell filtrate (cell-free DNA): filtrate of 1.68×10^5 CFUs mL^−1 suspension through 0.22 μm filter. The procedure:
(§1) A general schematic for the MIL-based cell extraction procedure is depicted in FIG. 10. In a 4 mL screw cap glass vial, a controlled volume (e.g., 10 μL) of MIL was added to 2 mL of diluted cell suspension and dispersed into microdroplets by vortex agitation for 15-120 s. Following the dispersive extraction, a 0.9 T magnetic field was applied to collect the cell-enriched MIL extraction phase. After the aqueous phase was decanted, the MIL was subjected to a static wash with 2 mL of deionized water to ensure that residual cell suspension was removed. The extracted E. coli was recovered from the MIL solvent by vortexing the MIL in 1 mL of LB media from 30 to 300 s. Following back-extraction, aliquots of the cell-enriched LB media were cultured on selective agar as well as analyzed by PCR.
Following the recovery of E. coli cells from the MIL extraction phase, an aliquot of the LB back-extraction solution was analyzed by PCR. […] The thermal protocol used for amplification of the MTAP gene was as follows: 5 min initial denaturation at 95° C. followed by 30 cycles of 30 s denaturation at 95° C., 45 s annealing at 54° C., and elongation for 45 s at 72° C.
After thermal cycling, the PCR products were mixed with 10 μL of bromophenol blue tracking dye solution (30% glycerol v/v) and loaded on a 1% agarose gel stained with SYBR Safe DNA gel stain. The PCR amplicon was subjected to electrophoresis at approximately 4 V cm^−1 and subsequently visualized using a transilluminator.
To improve detection limits, cells were recovered from the MIL phase using […] and a 1 μL aliquot of LB media was analyzed by PCR amplification. […] MILs as extraction media.
MIL. […] 1999; 37:2479-82). It should be noted that PCR assays are unable to distinguish between live and dead cells and, therefore, are complementary to microbiological culture for the determination of viable cells in a sample.

For data set [5], the system named is E. coli. Kind of data set: MIL-based extraction of viable E. coli, selective culture and colony enumeration. To be noted: aqueous solutions of 1.68×10^5 CFUs mL^−1. The procedure: For each cell extraction experiment, 2 mL of sterile LB media with 100 μg mL^−1 carbenicillin was inoculated with 0.5 μL of E. coli glycerol stock and incubated overnight at 37° C. and 225 rpm. The overnight culture was centrifuged at 2820 g for 8 min and the supernatant discarded. The cells were then vortexed for 15 s in 2 mL of deionized water and centrifuged once again at 2820 g for 8 min. Following a total of three washes, the cells were re-suspended in 1 mL of deionized water. The concentration of cells within the suspension was initially determined by measuring the optical density of the sample at 600 nm (OD600), where an OD600 equal to 1.000 represents 8×10^8 E. coli cells mL^−1. The bacterial suspension was diluted to an OD600 value of 0.021 (1.68×10^7 cells mL^−1), after which 10-fold serial dilutions were performed to yield the desired sample concentration. Since the sample concentrations were below the detection limit of the spectrophotometer, the final concentration of each sample (in CFUs mL^−1) was obtained using a plate counting method. Briefly, 15 μL of diluted cell suspension were mixed with 985 μL of LB media and vortexed for 3 min. A […] aliquot of the suspension was spread onto a selective LB agar plate with 100 μg mL^−1 carbenicillin and incubated overnight at 37° C. to obtain visible colonies.
as §1
To detect viable bacteria recovered from the MIL extraction solvent, a culture-based method selective for E. coli transformants was employed. Following MIL-based extraction, a 100 μL aliquot of the LB back-extraction solution was plated on LB agar containing 100 μg mL^−1 carbenicillin and incubated overnight at 37° C. Visible colonies were counted, tabulated, and compared to the colonies obtained for the sample prior to extraction. The enrichment factor (EF) from the MIL-based extraction was calculated by Equation 1, where CMIL is the concentration of CFUs within the MIL extraction phase and CS represents the concentration of CFUs in the bacterial suspension prior to extraction. EF=CMIL/CS Equation 1
To determine if MILs can extract viable E. coli cells, aqueous solutions of 1.68×10^5 CFUs mL^−1 were extracted with each of the seven MILs using an approach that is similar to one depicted in FIG. 10. […] [Co(hfacac)3^−] MILs with the greatest number of colonies obtained from the Ni(II)-based MIL extractions.

Data set [6] is described as follows: 1 second vial inversion (viscosity comparison). In kind it is physicochemical. To be noted: 1 second inversion of each MIL.
Text: FIG. 2 compares the viscosities of [P66614^+]2[MnCl4^2−], [P66614^+][Ni(hfacac)3^−], and [P66614^+][Nd(hfacac)4^−] by performing a 1 second inversion of each MIL.
For data set [7] the following is noted: 25° C.; cited from earlier work.
Setting [8] is: LB media with 8.0×10^2 CFUs mL^−1, approximately 10 μL of MIL, compared to unexposed standard.

Consider `CCCCCCCCCCCCCC[P+](CCCCCC)(CCCCCC)CCCCCC.O=C(C=C([O-])C(F)(F)F)C(F)(F)F.O=C(C=C([O-])C(F)(F)F)C(F)(F)F.O=C(C=C([O-])C(F)(F)F)C(F)(F)F.[Co+2]` [MIL 1, trihexyl(tetradecyl)phosphonium tris(hexafluoroacetylaceto)cobaltate(II)], for which, in data set [1], the “μeff, effective magnetic moment” value came out at 4.3 μB. In addition, in data set [2], the “dissolution into the aqueous phase” value is recorded as “no sign of dissolution into the aqueous phase”. Moreover, in data set [3], the “sharp increase in the rate of decomposition” value was “around 200 °C” and the “onset of decomposition (thermal stability)” value was “approximately 130 °C”. Besides, in the data set on E. coli K12 cells, the “influence on the growth of E. coli” value is “little to no influence on the growth of E. coli”. Also, the “E. coli concentration at which bacterial pDNA was detected by PCR” value (“E. coli concentration” for short) in the data set on E. coli [4] is reported as 1.68×10^5 CFUs mL^−1.

Take `CCCCCCCCCCCCCC[P+](CCCCCC)(CCCCCC)CCCCCC.O=C(C=C([O-])C(F)(F)F)C(F)(F)F.O=C(C=C([O-])C(F)(F)F)C(F)(F)F.O=C(C=C([O-])C(F)(F)F)C(F)(F)F.[Mn+2]` [MIL 2, [P66614^+] tris(hexafluoroacetylaceto)manganate(II)]: the “visible colonies after back-extraction with LB media and culture on selective agar” value in the data set with E. coli [5] is “did not yield any visible colonies”. Also, the μeff in data set [1] (at higher temperatures) came to 5.5 μB; in data set [1] (at lower temperatures), 5.8 μB. The “degradation start, higher than the cobalt-based MIL” value in data set [3] is “approximately 25 °C”. Moreover, in the data set with E. coli K12 cells, the “influence on the growth of E. coli” value is “little to no influence on the growth of E. coli”.

With `CCCCCCCCCCCCCC[P+](CCCCCC)(CCCCCC)CCCCCC.O=C(C=C([O-])C(F)(F)F)C(F)(F)F.O=C(C=C([O-])C(F)(F)F)C(F)(F)F.O=C(C=C([O-])C(F)(F)F)C(F)(F)F.O=C(C=C([O-])C(F)(F)F)C(F)(F)F.[Dy+3]` [MIL 4, [P66614^+] tetrakis(hexafluoroacetylaceto)dysprosate(III)], in data set [1], the “μeff, effective magnetic moment” value is on record as 9.7 μB. In the data set with E. coli K12 cells (setting [8]), the “influence on the growth of E. coli” value was “little to no influence on the growth of E. coli”. Further, in the data set with E. coli [4], the “E. coli concentration” value is reported as 1.68×10^5 CFUs mL^−1 and the “amplicon after extraction of cell filtrate (cell-free DNA)” value is “No amplicon was detected”.

`CCCCCCCCCCCCCC[P+](CCCCCC)(CCCCCC)CCCCCC.O=C(C=C([O-])C(F)(F)F)C(F)(F)F.O=C(C=C([O-])C(F)(F)F)C(F)(F)F.O=C(C=C([O-])C(F)(F)F)C(F)(F)F.O=C(C=C([O-])C(F)(F)F)C(F)(F)F.[Gd+3]` [MIL 5, [P66614^+] tetrakis(hexafluoroacetylaceto)gadolinate(III)]: the “μeff, effective magnetic moment” value in data set [1] is on record as 7.7 μB. The “influence on the growth of E. coli” value in the data set with E. coli K12 cells (setting [8]) is recorded as “hindered the proliferation of cells”.

With `CCCCCCCCCCCCCC[P+](CCCCCC)(CCCCCC)CCCCCC.O=C(C=C([O-])C(F)(F)F)C(F)(F)F.O=C(C=C([O-])C(F)(F)F)C(F)(F)F.O=C(C=C([O-])C(F)(F)F)C(F)(F)F.O=C(C=C([O-])C(F)(F)F)C(F)(F)F.[Nd+3]` [MIL 6, [P66614^+] tetrakis(hexafluoroacetylaceto)neodymate(III)], the “μeff, effective magnetic moment” value in data set [1] amounted to 2.8 μB. Besides, the “dissolution into the aqueous phase” value in data set [2] is “no sign of dissolution into the aqueous phase”. In data set [3], the “onset of decomposition (thermal stability)” value was “around 225 °C”. In addition, the “influence on the growth of E. coli” value in the data set with E. coli K12 cells (setting [8]) is “little to no influence on the growth of E. coli”. In addition, in the data set with E. coli [4], the “E. coli concentration” value is on record as 1.68×10^5 CFUs mL^−1 and the “amplicon after extraction of cell filtrate (cell-free DNA)” value was “No amplicon was detected”. Besides, the “movement down the vial” value in data set [6] is recorded as “flow easily toward the bottom of the vial”.

For `CCCCCCCCCCCCCC[P+](CCCCCC)(CCCCCC)CCCCCC` [No. 1, [P66614^+] tetrachloroferrate(III), reference compound], the “dissolution into the aqueous phase” value in data set [2] was “dissolving into the aqueous solution”. For the same compound, the viscosity (in general, the internal friction of a fluid under shear) in data set [7] was 650 cP. Moreover, the “influence on the growth of E. coli” value with E. coli K12 cells (setting [8]) was “hindered the proliferation of cells”.

As to `CCCCCCCCCCCCCC[P+](CCCCCC)(CCCCCC)CCCCCC.CCCCCCCCCCCCCC[P+](CCCCCC)(CCCCCC)CCCCCC.CCCCCCCCCCCCCC[P+](CCCCCC)(CCCCCC)CCCCCC.[Cl][Gd-3]([Cl])([Cl])([Cl])([Cl])[Cl]` [[P66614]3[GdCl6^3−], [P66614] hexachlorogadolinate(III)], the viscosity in data set [7] is 18390 cP.

As to `CCCCCCCCCCCCCC[P+](CCCCCC)(CCCCCC)CCCCCC.CCCCCCCCCCCCCC[P+](CCCCCC)(CCCCCC)CCCCCC.[Cl][Mn-2]([Cl])([Cl])[Cl]` [[P66614^+]2[MnCl4^2−], [P66614^+] tetrachloromanganate(II), reference compound], the viscosity in data set [7] is recorded as 75230 cP. Also, the “movement down the vial” value in data set [6] is recorded as “little to no movement down the vial”.

As for `CCCCCCCCCCCCCC[P+](CCCCCC)(CCCCCC)CCCCCC.[Cl-]` [[P66614^+] [Cl^−], Trihexyl(tetradecyl)phosphonium chloride, reference compound], the “thermal decomposition compared with the MILs” value in data set [3] (reference) is given as “lowest thermal decomposition”.
